Measured values reported in patent US5952294A, “Peptidyl prodrugs and methods of making and using the same” (University of Pittsburgh of the Commonwealth System of …, priority 1996, dated 1999).
Values after ≈ are worked out from the molar mass of the structure shown.

What was measured:
[1] = Stability in bovine or human plasma by HPLC (plasma not distinguished); assay type: in vitro ADME; conditions: for Cyclization / stability in plasma: bovine or human plasma, HPLC
Protocol: (§1) HPLC studies of the cyclization process in plasma were performed on a 4 mg/ml solution of prodrug in plasma. At appropriate time intervals, 25 microliter aliquots were removed and 0.20 ml of CH3 CN was added to precipitate the protein. After centrifugation, about 25 microliters of clear supernatant liquid was injected directly into the HPLC port. The HPLC analysis was performed with a C-18 reverse phase column using an H2 O/CH3 CN (1:1) eluent and the UV detector was set at 250 nm. The relative concentration of ara-C was determined by the relative peak areas. […] The disappearance of characteristic signals of the prodrugs was accompanied by the appearance of signals of ara-C and the corresponding heterocycles. […] FIGS. 6 through 8 plot the percent concentration of prodrug over time. Table 1 below provides the half life (in hours) for ara-C release of prodrugs 10, 15, 17 and 19 as determined by NMR and HPLC analysis.
The stability of these compounds in bovine and human plasma was determined by HPLC analysis (Entry 5 and 6 in Table 1).

[2] = Release of ara-C from prodrugs in bovine plasma by HPLC; assay type: in vitro ADME; conditions: pH 7.4, 22° C.
Protocol: as §1

[3] = Release of ara-C from prodrugs (cyclization) in CD3OD or D2O monitored by 1H NMR; assay type: physicochemical; conditions: for Half-life (hours) for release of ara-C, t1/2: 22° C., 1H NMR
Protocol: The stability of the ara-C prodrug compounds 10, 15, 17 and 19, prepared according to Example 1, in various reaction media was investigated by NMR and HPLC analyses. The ^1 H NMR studies of the cyclization process were performed on a 4 mg/ml solution of prodrug in CD3 OD or D2 O. Sodium acetate (2 mg) or acetic acid (2 microliters) were added neat to the samples to control the pH. The spectra were collected in appropriate time intervals, and the ratio of prodrug to drug was determined by comparing the integration of the H-C (6) on the nucleoside of prodrug and ara-C.

[4] = tested on: Murine L-1210 leukemia cells; assay: L-1210 cell line growth inhibition assay; assay type: cell-based
Protocol: The antiproliferation activity of compounds 10, 15, 17 and 19, as compared to ara-C, was tested in an L-1210 cell line growth inhibition assay using various concentrations and continuous exposure. Cell numbers were determined 72 hours after initial drug exposure. Murine L-1210 leukemia cells were grown in suspension using Dulbecco's medium (Gibco/BRL) supplemented with 10% fetal bovine serum (FBS, HyClone), […] of L-glutamine, 100 U/ml penicillin G sodium, and 100 μg/m1 streptomycin (Gibco/BRL). Cells were grown in a humidified incubator as 37° C. under an atmosphere of 95% air and 5% CO2. Cells were routinely passaged at a 1:5 ratio and found to be free of mycoplasma contamination.

[5] = tested on: human promyelocytic leukemia HL-60 cells; assay: Induction of apoptosis (morphology) in HL-60 cells; assay type: cell-based; conditions: for Maximum percentage of cells exhibiting frank apoptotic morphology: FIG. 9; for Appearance of apoptotic bodies / increase in apoptosis: 24 hours exposure, about 10 micromols
Protocol: (§2) The ability of the prodrug compounds to kill human tumor cells was tested, specifically their ability to induce apoptosis in human promyelocytic leukemia HL-60 cells. These cells are known to undergo apoptosis following exposure to ara-C. The ability of the prodrugs to cause internucleosomal DNA fragmentation, a characteristic feature of apoptosis in HL-60 cells, was also investigated. The HL-60 were cultured in essentially the same manner as the L-1210 cells, only using Iscoue's modification for the medium. Internucleosomal DNA fragmentation was determined as follows. Following the indicated drug treatments, aliquots of cells (1×10^6) were pelleted by centrifugation at 100×g for 5 minutes, washed with PBS, solubilized with 20 microliters of lysis buffer (10 mM EDTA, 0.5% sarkosyl, 1 mg/ml proteinase K, 50 mM Tris, pH8), and incubated at 50° C. for 1 hour. After incubation, RNaseA (Boehringer Mannheim) was added to a final concentration of 0.33 mg/ml and incubated for an additional hour at 37° C. The lysate was loaded into dry wells of a 1.8% agarose gel, the wells were sealed with low melting point agarose, and the DNA was electrophoresed using Tris-phosphate-EDTA (TPE) running buffer. After electrophoresis, the DNA was stained by immersion of the gel in water containing 1 μg/ml ethidium bromide (Sigma). The DNA was visualized and photographed using an ultraviolet transilluminator.
The formation of apoptotic bodies occurred within a maximal halftime of 4 hours and there was no noticeable difference in the kinetics of apoptosis among ara-C, 10, 15 and 17.

[6] = Release of ara-C from prodrugs in human plasma by HPLC; assay type: in vitro ADME; conditions: pH 7.4, 22° C.
Protocol: as §1

[7] = tested on: human promyelocytic leukemia HL-60 cells; assay: Internucleosomal DNA fragmentation in HL-60 cells; assay type: cell-based
Protocol: as §2, with “These cells are known to undergo apoptosis following exposure to ara-C.” left out
DNA fragmentation of the compounds was tested.

[8] = total; cited from earlier work
[9] = continuous exposure, cell numbers 72 hours after initial drug exposure
[10] = Mus musculus, L1210, continuous exposure, cell numbers 72 hours after initial drug exposure

Cyclization / stability in plasma [1] | Half-life (hours) for release of ara-C, t1/2 [2] | Half-life (hours) for release of ara-C, t1/2 ([3]; CD3OD) | Half-life (hours) for release of ara-C, t1/2 ([3]; CD3OD, HOAc) | Half-life (hours) for release of ara-C, t1/2 ([3]; CD3OD, NaOAc) | L-1210 Cell Growth Inhibition IC50 [4, 9] | L-1210 Cell Growth Inhibition IC90 [4, 9] | Half-life (hours) for release of ara-C, t1/2 [6] | Molecule | IC50 and IC90 values compared with ara-C control ([4]; L-1210 cells) | Maximal halftime of formation of apoptotic bodies [5] | Maximum percentage of cells exhibiting frank apoptotic morphology [5] | Appearance of apoptotic bodies / increase in apoptosis [5] | also measured
cyclize readily | 0.5 h | > 1000 h | > 1000 h | 1.3 h | 1.1 ng/mL | 3.4 ng/mL | 0.4 h | Aib-Aib-ara-C hydrochloride [Compound 15] | essentially identical to the ara-C control | ≤ 4 h | approximately 25% |  | 
good stability | > 10 h | > 2000 h | > 2000 h | 800 h | 600 ng/mL | 1400 ng/mL | > 10 h | CC(C)(N)C(=O)NNC(=O)Nc1ccn([C@@H]2O[C@H](CO)[C@@H](O)[C@@H]2O)c(=O)n1.Cl [Compound 19, Aib-2-Azagly-ara-C hydrochloride] |  |  |  | no obvious increase in apoptosis | ara-C detected in plasma after 48 hours ([1]; plasma, after 48 hours): No ara-C was detected; DNA fragmentation after preincubation ([7]; compound preincubated in serum-free medium for 15 days): DNA ladders similar ara-C; Cyclization to release the drug ([3]; in the presence of NaOAc): extremely slow; Cyclization to release the drug ([3]; neutral or acid conditions): did not undergo cyclization; Times less toxic than ara-C in L-1210 test ([4]; L-1210 cells, versus ara-C): about 500 times; Apoptotic activity after preincubation ([5]; compound preincubated in serum-free medium for 15 days, FIG. 10): slightly less than ara-C
cyclize readily | 0.4 h | 42 h | 31 h | 0.3 h | 1.3 ng/mL | 5 ng/mL | 0.3 h | CC(C)(NC(=O)[C@@H](N)Cc1ccc(OCc2ccccc2)cc1)C(=O)Nc1ccn([C@@H]2O[C@H](CO)[C@@H](O)[C@@H]2O)c(=O)n1.Cl [Compound 10, Tyr(OBn)-Aib-ara-C hydrochloride] | essentially identical to the ara-C control | ≤ 4 h | approximately 25% |  | Faster cyclization upon change from CD3OD to D2O ([3]; D2O versus CD3OD): about 50%; Half-life (hours) for release of ara-C, t1/2 ([3]; D2O): 21 h
 |  |  |  |  |  |  |  | Nc1ccn([C@@H]2O[C@H](CO)[C@@H](O)[C@@H]2O)c(=O)n1 [ara-C, 1-(β-D-arabinofuranosyl) cytosine, reference compound] |  | ≤ 4 h | approximately 25% | obvious apoptotic bodies | Internucleosomal DNA fragmentation ([7]; about 10 micromols, 4 hours): displayed internucleosomal 180-200 base pair DNA fragments; IC50 [4, 10]: 1.5 ng/mL (≈ 0.00617 µM); IC90 [4, 10]: 4.3 ng/mL (≈ 0.0177 µM); Fraction of dose excreted in the urine within 24 hours [8]: About 80%
cyclize readily | 0.4 h | 360 h | 860 h | 1.4 h | 1.0 ng/mL | 3.4 ng/mL | 0.3 h | Glc-Aib-ara-C [Compound 17] | essentially identical to the ara-C control | ≤ 4 h | approximately 25% |  | 
